Data from patent US20230100838A1 (Revolution Medicines, Inc., priority 2019, published 2023).

Assays:
Format in all cases: binding
[1] = molecular target: T1, GDP-loaded K-Ras (1-169) G12D, C51S, C80L, C118S (Homo sapiens, UniProt P01116, C118S/C51S/C80L/G12D); experiment: K-Ras G12D(GDP) cross-linking assay (conjugate formation, TOF mass spectrometry); set-up: key: 0: No observed x-linking; +: 0 < x ≤ 20; ++: 20 < x ≤ 40; +++: 40 < x ≤ 100; settings: percent covalently modified K-Ras by MS, room temperature, typical compound conc. 2, 10, 25 μM, endpoints 1 and 24 h
T1 construct: GDP-loaded K-Ras (1-169) G12D, C51S, C80L, C118S
Method in brief: (§1)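 5 μM protein (final, from 50 μM) in HEPES/NaCl/MgCl2 buffer pH 7.4 with compound typically at 2, 10 and 25 μM, room temperature, 1 and 24 h endpoints; formic acid quench. Intact-protein LC–TOF MS; percent modification is covalent adduct peak height over total K-Ras peak height.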

[2] = molecular target: K-Ras G12S (Homo sapiens, UniProt P01116, G12S); experiment: K-Ras G12S cross-linking assay (comparable procedure, conjugate formation, TOF mass spectrometry); set-up: key: 0: No observed x-linking
Experimental: Protocol: K-Ras G12D(GDP) Cross-Linking Assay
Note: while the following protocol outlines the procedure for K-Ras G12D(GDP), a person of skill in the art may substitute other Ras proteins, and may also substitute a non-hydrolyzable GTP analog for GDP to study GTP bound Ras protein.
GDP-loaded K-Ras (1-169) G12D, C51S, C80L, C118S and GDP-loaded K-Ras (1-169) C51S, C80L, C118S were adjusted to 50 μM in K-Ras assay buffer (12.5 mM HEPES, 75 mM NaCl and 1 mM MgCl2 at pH 7.4). A 5 μL aliquot of each protein solution was added to each well of a 96-well microplate containing 40 μL of assay buffer. Initial compound stocks were prepared in DMSO at 100 times their final assay concentration. Compounds were then diluted 10-fold into K-Ras assay buffer to 10 times their final concentration. A 5 μL aliquot of each diluted compound solution was added to each protein solution in the 96-well microplate to initiate the reaction, which then proceeded at room temperature. Typical final compound concentrations were 2, 10, and 25 μM. At each time point, the reactions were analyzed immediately or quenched with 5 μL of a 5% formic acid solution and kept at 4° C. until analysis. Typical assay endpoints were 1 and 24 h.
Data collection took place on an Agilent 6230 TOF Mass Spectrometer. Complete reactions were injected onto a C4 reverse-phase column to separate protein from buffer components prior to entering the mass spectrometer. The proteins were eluted from the column by increasing acetonitrile fraction in the mobile phase and fed directly into the mass analyzer. Initial analysis of raw data took place in Agilent MassHunter BioConfirm software and consisted of deconvolution of multiple protein charge states with the maximum entropy algorithm, with a mass step of 1 Da. The heights of all deconvoluted protein masses were exported for further data analysis. The percent modification of each protein was then determined by calculating the peak height of the covalently modified K-Ras species as a percentage of the sum total of K-Ras protein peak height.

[3] = molecular target: T2, GDP-loaded K-Ras (1-169) C51S, C80L, C118S (Homo sapiens, UniProt P01116, C118S/C51S/C80L); experiment: K-Ras WT (GDP) cross-linking assay (conjugate formation, TOF mass spectrometry); set-up: key: 0: No observed x-linking; +: 0 < x ≤ 20; ++: 20 < x ≤ 40; +++: 40 < x ≤ 100; settings: percent covalently modified K-Ras by MS, room temperature, typical compound conc. 2, 10, 25 μM, endpoints 1 and 24 h
T2 construct: GDP-loaded K-Ras (1-169) C51S, C80L, C118S
Method in brief: as §1

[4] = Table 4, percent covalently modified K-Ras by MS
[5] = Table 5, percent covalently modified K-Ras by MS

Row | Structure (SMILES) | G12D x-linking (%) ([1]; Table 4) | G12S x-linking (%) [2, 4] | WT x-linking (%) ([3]; Table 4) | G12D x-linking (%) ([1]; Table 5) | G12S x-linking (%) [2, 5] | WT x-linking (%) ([3]; Table 5)
1 | COc1ccc(CN=C=NCCCN(C)c2nc(OC[C@@H]3CCCN3C)nc3c2CCN(c2cccc4cccc(C)c24)C3)cc1 [Example 33, N-(3-((((4-methoxybenzyl)imino)methylene)amino)propyl)-N-methyl-7-(8-methylnaphthalen-1-yl)-2-(((S)-1-methylpyrrolidin-2-yl)methoxy)-5,6,7,8-tetrahydropyrido[3,4-d]pyrimidin-4-amine] | +++ (40 < x ≤ 100) | ++ (10 < x ≤ 100) | ++ (20 < x ≤ 100) | – | – | –
2 | Cc1cccc2cccc(N3CCc4c(nc(OC[C@@H]5CCCN5C)nc4N4CCN(C(=O)[C@H]5CN5)[C@@H](CC#N)C4)C3)c12 [Example 63, 2-((S)-1-((R)-aziridine-2-carbonyl)-4-(7-(8-methylnaphthalen-1-yl)-2-(((S)-1-methylpyrrolidin-2-yl)methoxy)-5,6,7,8-tetrahydropyrido[3,4-d]pyrimidin-4-yl)piperazin-2-yl)acetonitrile] | – | – | – | ++ (20 < x ≤ 40) | + (0 < x ≤ 10) | + (0 < x ≤ 20)
3 | CN=C=NC1CCN(c2ncnc3c(F)c(-c4ccccc4F)c(Cl)cc23)CC1 [Example 4, N-(1-(6-chloro-8-fluoro-7-(2-fluorophenyl)quinazolin-4-yl)piperidin-4-yl)-N-methylmethanediimine] | + (0 < x ≤ 20) | ++ (10 < x ≤ 100) | + (0 < x ≤ 20) | – | – | –
4 | Cc1cccc2cccc(N3CCc4c(nc(OC[C@@H]5CCCN5C)nc4N4CCC(N=C=NCCN(C)c5ccccc5)CC4)C3)c12 [Example 89, N-methyl-N-(2-((((1-(7-(8-methylnaphthalen-1-yl)-2-(((S)-1-methylpyrrolidin-2-yl)methoxy)-5,6,7,8-tetrahydropyrido[3,4-d]pyrimidin-4-yl)piperidin-4-yl)imino)methylene)amino)ethyl)aniline] | – | – | – | + (0 < x ≤ 20) | + (0 < x ≤ 10) | + (0 < x ≤ 20)
5 | O=C(NCCCl)NCCNc1ncnc2c(F)c(-c3ccccc3F)c(Cl)cc12 [Example 12, 1-(2-((6-chloro-8-fluoro-7-(2-fluorophenyl)quinazolin-4-yl)amino)ethyl)-3-(2-chloroethyl)urea] | 0 | 0 | 0 | – | – | –
6 | CCCN=C=NCCCN(C)c1nc(OC[C@@H]2CCCN2C)nc2c1CCN(c1cccc3cccc(C)c13)C2 [Example 30, N-methyl-7-(8-methylnaphthalen-1-yl)-2-(((S)-1-methylpyrrolidin-2-yl)methoxy)-N-(3-(((propylimino)methylene)amino)propyl)-5,6,7,8-tetrahydropyrido[3,4-d]pyrimidin-4-amine] | +++ (40 < x ≤ 100) | ++ (10 < x ≤ 100) | ++ (20 < x ≤ 100) | – | – | –
7 | COCCN=C=N[C@H]1CC[C@H](N(C)c2nc(OC[C@@H]3CCCN3C)nc3c2CCN(c2cccc4cccc(C)c24)C3)CC1 [Example 78, N-((1r,4S)-4-((((2-methoxyethyl)imino)methylene)amino)cyclohexyl)-N-methyl-7-(8-methylnaphthalen-1-yl)-2-(((S)-1-methylpyrrolidin-2-yl)methoxy)-5,6,7,8-tetrahydropyrido[3,4-d]pyrimidin-4-amine] | – | – | – | ++ (20 < x ≤ 40) | + (0 < x ≤ 10) | + (0 < x ≤ 20)
8 | Cc1cccc2cccc(N3CCc4c(nc(OC[C@@H]5CCCN5C)nc4NCCN(C)C4=NCCO4)C3)c12 [Example 41, (S)—N^1-(4,5-dihydrooxazol-2-yl)-N^1-methyl-N^2-(7-(8-methylnaphthalen-1-yl)-2-((1-methylpyrrolidin-2-yl)methoxy)-5,6,7,8-tetrahydropyrido[3,4-d]pyrimidin-4-yl)ethane-1,2-diamine] | 0 | 0 | 0 | – | – | –
9 | COCCN=C=N[C@H]1C[C@H](Nc2nc(OC[C@@H]3CCCN3C)nc3c2CCN(c2cccc4cccc(C)c24)C3)C1 [Example 72, N-((1r,3S)-3-((((2-methoxyethyl)imino)methylene)amino)cyclobutyl)-7-(8-methylnaphthalen-1-yl)-2-(((S)-1-methylpyrrolidin-2-yl)methoxy)-5,6,7,8-tetrahydropyrido[3,4-d]pyrimidin-4-amine] | – | – | – | +++ (40 < x ≤ 100) | ++ (10 < x ≤ 100) | ++ (20 < x ≤ 100)
10 | COc1ccc(N=C=NC2CCN(c3ncnc4c(F)c(-c5ccccc5F)c(Cl)cc34)CC2)cc1 [Example 5, N-(1-(6-chloro-8-fluoro-7-(2-fluorophenyl)quinazolin-4-yl)piperidin-4-yl)-N-(4-methoxyphenyl)methanediimine] | 0 | 0 | 0 | – | – | –
11 | Cc1cccc2cccc(N3CCc4c(nc(OC[C@@H]5CCCN5C)nc4N4CCC(N=C=NCc5ccon5)CC4)C3)c12 [Example 86, N-(isoxazol-3-ylmethyl)-N-(1-(7-(8-methylnaphthalen-1-yl)-2-(((S)-1-methylpyrrolidin-2-yl)methoxy)-5,6,7,8-tetrahydropyrido[3,4-d]pyrimidin-4-yl)piperidin-4-yl)methanediimine] | – | – | – | +++ (40 < x ≤ 100) | ++ (10 < x ≤ 100) | ++ (20 < x ≤ 100)
12 | Cc1cccc2cccc(N3CCc4c(nc(OC[C@@H]5CCCN5C)nc4N4CCN(C(=O)NCCCl)[C@@H](CC#N)C4)C3)c12 [Example 34, (S)—N-(2-chloroethyl)-2-(cyanomethyl)-4-(7-(8-methylnaphthalen-1-yl)-2-(((S)-1-methylpyrrolidin-2-yl)methoxy)-5,6,7,8-tetrahydropyrido[3,4-d]pyrimidin-4-yl)piperazine-1-carboxamide] | + (0 < x ≤ 20) | + (0 < x ≤ 10) | + (0 < x ≤ 20) | – | – | –
13 | OB(O)C1CCN(c2ncnc3c(F)c(-c4ccccc4F)c(Cl)cc23)CC1 [Example 19, (1-(6-chloro-8-fluoro-7-(2-fluorophenyl)quinazolin-4-yl)piperidin-4-yl)boronic Acid] | 0 | 0 | 0 | – | – | –
14 | COCCN=C=N[C@H]1CC[C@@H](N(C)c2nc(OC[C@@H]3CCCN3C)nc3c2CCN(c2cccc4cccc(C)c24)C3)CC1 [Example 79, N-((1s,4R)-4-((((2-methoxyethyl)imino)methylene)amino)cyclohexyl)-N-methyl-7-(8-methylnaphthalen-1-yl)-2-(((S)-1-methylpyrrolidin-2-yl)methoxy)-5,6,7,8-tetrahydropyrido[3,4-d]pyrimidin-4-amine] | – | – | – | +++ (40 < x ≤ 100) | ++ (10 < x ≤ 100) | ++ (20 < x ≤ 100)
